Laboratory results as given in patent US20190125646A1, “ORAL COMPOSITION FOR TOOTH WHITENING PRODUCT, AND KIT COMPRISING SAME” (LG HOUSEHOLD & HEALTH CARE LTD., priority 2013, published 2019).
“Also recorded” adds a separate entry of the source.

Legend:
[1] = Survey evaluation related to irritation (Experimental Example 3); assay type: in vivo; conditions: subjects' own evaluation after use, score 0-3; FIG. 3
Source text: After using comparative example 2 and examples 1 and 2, each subject was allowed to evaluate the degree of irritation on a 3-point scale according to the following evaluation criteria.
2: Certainly sensible irritation.
3: Stop using due to irritation

[2] = Brightness variation (Experimental Example 4); conditions: gel first agent plus hydrogen peroxide 3.0% patch on stained HAP disk, removed after 1 hour; FIG. 4
Experimental: Comparative examples 3 through 8 and example 5 were each attached to a stained HAP disk and were removed after 1 hour, and variations relative to initial brightness were measured and were indicated as ΔL.

Compound	degree of irritation (survey, 3-point scale) [1]	whitening effect (variation relative to initial brightness, ΔL) [2]
NCCS(=O)(=O)O [taurine]	significantly reduced	–
iron chloride	more severe	highest tooth whitening effect; also recorded: remarkably superior effect than other metal ions
